Measurements as given in the NIST ThermoML archive (doi:10.1021/je700671t).

Assay: xn = mol fraction of the nth substance listed
Details: 101 kPa, Liquid; for viscosity: Capillary tube (Ostwald / Ubbelohde) method

CN(C)C=O [dimethylformamide] + O
Details	mass density [kg/m3]	viscosity [mPa·s]
283.15 K, x1 = 0.02	1000.31	–
283.15 K, x1 = 0.04	1001.42	–
283.15 K, x1 = 0.06	1002.8	–
283.15 K, x1 = 0.08	1004.13	–
283.15 K, x1 = 0.1	1005.32	–
283.15 K, x1 = 0.2	1007.64	–
283.15 K, x1 = 0.3	1004.4	–
283.15 K, x1 = 0.398	997.83	–
283.15 K, x1 = 0.498	990.56	–
283.15 K, x1 = 0.599	983.02	–
283.15 K, x1 = 0.697	976.07	–
283.15 K, x1 = 0.798	969.84	–
283.15 K, x1 = 1	958.96	–
288.15 K, x1 = 0.02	999.23	–
288.15 K, x1 = 0.04	999.91	–
288.15 K, x1 = 0.06	1000.87	–
288.15 K, x1 = 0.08	1001.82	–
288.15 K, x1 = 0.1	1002.67	–
288.15 K, x1 = 0.2	1003.86	–
288.15 K, x1 = 0.3	1000.1	–
288.15 K, x1 = 0.398	993.31	–
288.15 K, x1 = 0.498	985.94	–
288.15 K, x1 = 0.599	978.36	–
288.15 K, x1 = 0.697	971.37	–
288.15 K, x1 = 0.798	965.11	–
288.15 K, x1 = 1	954.17	–
293.15 K, x1 = 0.02	997.92	1.234
293.15 K, x1 = 0.04	998.2	1.442
293.15 K, x1 = 0.06	998.77	1.656
293.15 K, x1 = 0.08	999.37	1.847
293.15 K, x1 = 0.1	999.9	2.062
293.15 K, x1 = 0.2	1000.01	2.782
293.15 K, x1 = 0.3	995.76	2.954
293.15 K, x1 = 0.398	988.76	2.622
293.15 K, x1 = 0.498	981.3	2.162
293.15 K, x1 = 0.599	973.67	1.713
293.15 K, x1 = 0.697	966.65	1.377
293.15 K, x1 = 0.798	960.37	1.153
293.15 K, x1 = 1	949.39	0.864
298.15 K, x1 = 0.02	996.39	–
298.15 K, x1 = 0.04	996.31	–
298.15 K, x1 = 0.06	996.53	–
298.15 K, x1 = 0.08	996.8	–
298.15 K, x1 = 0.1	997.03	–
298.15 K, x1 = 0.2	996.13	–
298.15 K, x1 = 0.3	991.4	–
298.15 K, x1 = 0.398	984.18	–
298.15 K, x1 = 0.498	976.64	–
298.15 K, x1 = 0.599	968.96	–
298.15 K, x1 = 0.697	961.92	–
298.15 K, x1 = 0.798	955.63	–
298.15 K, x1 = 1	944.6	–
303.15 K, x1 = 0.02	994.67	0.97
303.15 K, x1 = 0.04	994.25	1.114
303.15 K, x1 = 0.06	994.14	1.269
303.15 K, x1 = 0.08	994.11	1.407
303.15 K, x1 = 0.1	994.05	1.55
303.15 K, x1 = 0.2	992.19	2.051
303.15 K, x1 = 0.3	986.99	2.179
303.15 K, x1 = 0.398	979.57	1.979
303.15 K, x1 = 0.498	971.95	1.675
303.15 K, x1 = 0.599	964.24	1.382
303.15 K, x1 = 0.697	957.18	1.149
303.15 K, x1 = 0.798	950.87	0.985
303.15 K, x1 = 1	939.83	0.766
308.15 K, x1 = 0.02	992.74	–
308.15 K, x1 = 0.04	992.03	–
308.15 K, x1 = 0.06	991.61	–
308.15 K, x1 = 0.08	991.29	–
308.15 K, x1 = 0.1	990.98	–
308.15 K, x1 = 0.2	988.2	–
308.15 K, x1 = 0.3	982.55	–
308.15 K, x1 = 0.398	974.94	–
308.15 K, x1 = 0.498	967.24	–
308.15 K, x1 = 0.599	959.49	–
308.15 K, x1 = 0.697	952.42	–
308.15 K, x1 = 0.798	946.1	–
308.15 K, x1 = 1	935.05	–
313.15 K, x1 = 0.02	990.67	0.783
313.15 K, x1 = 0.04	989.66	0.891
313.15 K, x1 = 0.06	988.95	1.003
313.15 K, x1 = 0.08	988.37	1.103
313.15 K, x1 = 0.1	987.8	1.208
313.15 K, x1 = 0.2	984.15	1.564
313.15 K, x1 = 0.3	978.07	1.66
313.15 K, x1 = 0.398	970.26	1.538
313.15 K, x1 = 0.498	962.5	1.337
313.15 K, x1 = 0.599	954.73	1.14
313.15 K, x1 = 0.697	947.64	0.971
313.15 K, x1 = 0.798	941.33	0.847
313.15 K, x1 = 1	930.27	0.684
318.15 K, x1 = 0.02	988.43	–
318.15 K, x1 = 0.04	987.14	–
318.15 K, x1 = 0.06	986.17	–
318.15 K, x1 = 0.08	985.33	–
318.15 K, x1 = 0.1	984.53	–
318.15 K, x1 = 0.2	980.05	–
318.15 K, x1 = 0.3	973.55	–
318.15 K, x1 = 0.398	965.56	–
318.15 K, x1 = 0.498	957.73	–
318.15 K, x1 = 0.599	949.93	–
318.15 K, x1 = 0.697	942.85	–
318.15 K, x1 = 0.798	936.53	–
318.15 K, x1 = 1	925.49	–
